Patent US7425579B2, “Methods for inhibiting activity of polyamine transporters” (Universite Laval, priority 1998, dated 2008)

What was measured:
[1] = tested on: CD-1 mice; assay: Chronic toxicity of BNSD-X, 1% in drinking water for 14 d; type: in vivo; conditions: 1% (w/v) in drinking water
Protocol: To assess the relative toxicity of BNSD-X, the drug was administered as a 1% (w/v) solution in the drinking water to CD-1 mice with ad libitum access for 14 d. Mice were weighed every other day during the experiment. At the end of the experiment, mice were sacrificed, and organs (kidneys, liver, and spleen) were immediately weighed. Organs were then saved in 10% formalin for morphological examination by an in-house pathologist at the CHUL Research Center (Quebec City, Canada). Acute and subacute oral toxicity of BNSD-X was also separately determined by administering the drug by gavage (0-5 g/kg body weight).
The chronic toxicity of BNSD-X was next evaluated by allowing CD-1 mice to drink a 1% (w/v) solution of the drug for 14 d, and then sacrificing animals for the histological examination of the liver, kidneys and spleen.

[2] = tested on: T-47D cells; assay: Effect of inhibitors on T-47D cell proliferation (DNA content); type: cell-based, human; conditions: T-47D cells, 9 d
Protocol: FIGS. 3A and 3B are graphs showing the effect compounds used in a method according preferred embodiment of the present invention, on cell proliferation. In particular, they relate to the effect of selected BSD and BNSD derivatives on T-47D cell proliferation. Cells were incubated for 9 d with the indicated concentrations of BSD-2 (∘), BNSD-4 (●), BSD-4 (□), BNSD-6 (▪), BSD-10 (Δ), BSD-4-ene (▴) and BSD-4-yne (▾) in medium containing 1 mM aminoguanidine, and total DNA content per culture was then determined. B, Effect of BNSD-X (N,N,N′,N′-tetrakis-(3-aminopropyl)-p-diaminoxylene) on cell proliferation in various mammalian cell lines. Jurkat (∘), LAN-1 (●), L1210 (□), T-47D (▪), ZR-75-1 (Δ) and MDA-MB-231 (▴) cells were grown to near confluency or saturation (for 4 to 11 d according to the cell line considered) with the indicated concentrations of BNSD-X in the presence of 1 mM aminoguanidine, and total DNA content per culture was then determined. Data are given as the mean±SD for triplicate cultures from one out of at least two identical experiments;
FIGS. 4A and 4B are graphs showing how compounds used in a method according to a preferred embodiment are differentially sensitive to degradation by BSAO (bovine serum amine oxidase). In particular, T-47D cells were incubated for 9 d with the indicated concentrations of BSD-X (∘), BNSD-X (●), BSD-3 (□) or BNSD-3 (▪) in the absence (A) or presence of 1 mM aminoguanidine (B), and total DNA content per culture was then determined. Data are presented as the mean±SD for triplicate cultures from one representative experiment;
The effect of transport inhibitors on cell proliferation was evaluated by determination of cell number (L1210, Jurkat) using electronic sizing with a Model ZM Coulter counter (Coulter Electronics, Hialeah, Fla.), or DNA content per culture (for all other cell lines) with the 3,5-diaminobenzoic acid assay. […] Cytotoxicity of the inhibitors was determined in the presence or absence of aminoguanidine, and was confirmed by a trypan blue exclusion assay.

[3] = tested on: mammalian polyamine carrier; assay: Determination of polyamine uptake activity: inhibition of diamine and polyamine transport in T-47D cells; type: cell-based, human; conditions: T-47D breast cancer cells; mean±SD; read-out: Ki, inhibition of [3H]putrescine uptake
Protocol: The rate of diamine and polyamine transport was determined in T-47D and ZR-75-1 cells incubated in serum-free RPMI 1640 medium as previously described (U.S. Pat. No. 6,083,496; Covassin et al. (1999) Bioorg. Med. Chem. Lett. 9, 1709-1714), using 20 μM [^3H]putrescine (179 Ci/mol), 5 μM [^3H]spermidine (246 Ci/mol) and 3 μM [^14C]spermine (300-400 mCi/mol) respectively, as substrates for a 20-min assay period. Uptake activity was expressed per amount of DNA as fluorometrically determined using 3,5-diaminobenzoic acid (Simard et al. (1990) Endocrinology 126, 3223-3231). Kinetic parameters of polyamine transport inhibition for the transport antagonists were determined by Lineweaver-Burke analysis of uptake activity in the presence of 0.1 μM [^3H]putrescine, 0.03 μM [^3H]spermidine, and 0.01 μM [^14C]spermine plus increasing concentrations of nonradioactive substrate. For competitive inhibitors, Ki values were estimated by iterative curve fitting for sigmoidal equations describing transport rates in the presence of increasing concentrations of antagonist, using the Cheng-Prusoff equation for competitive inhibition (U.S. Pat. No. 6,083,496).
The ability of BSD and BNSD compounds to inhibit uptake of the main natural substrates of the mammalian polyamine carrier, namely putrescine, spermidine and spermine, was evaluated using T-47D human breast cancer cells (Table 1).
Data are presented as the mean±SD of at least two independent determinations of IC50 values, each based on triplicate determinations of uptake velocity at increasing inhibitor concentrations.
The potency of the polyamines and their xylylated dimers as competitive inhibitors of spermidine transport was evaluated in the T-47D human breast cancer cell line (Table 2).

`NCCCN(CCCN)Cc1ccc(CN(CCCN)CCCN)cc1` [28a, N,N,N′,N′-tetrakis-(3-aminopropyl)-p-diaminoxylene] was tested, and the “behavior and general body appearance” value [1] was “no incidence on the behavior nor general body appearance of the animals”, the “histological morphology of the liver, kidney and spleen” value ([1]; light microscopy) was “no observable differences” and the “effect of aminoguanidine addition on the cytotoxicity of the dimer” value ([2]; 1 mM aminoguanidine) was “abolished most of the cytotoxicity”. The “cytotoxicity in the absence of aminoguanidine” value ([2]; BSAO active) was “considerably more cytotoxic than their spermidine-like homologs” and the Ki [3] was 160 ± 30 nM.
